Tests used:
brain dopamine turnover = settings: mice and rats; studies of the early ninety's; cited from earlier work
locomotion = settings: mice and rats; studies of the early ninety's; cited from earlier work
[1] = tested on: Paclitaxel induced pain sensitization in the formalin test of pain; test: Paclitaxel induced neuropathic sensitization (PINS) in the formalin test of pain; format: in vivo, mice; settings: for PINS diminished: per os in Tween-80 (5%) suspension, vs Tween-80 (5%) controls
Text: NS-DA was synthesized and studied pharmacologically in the early ninety's.

CCCCCCCCCCCCCCCCCC(=O)NCCc1ccc(O)c(O)c1 [NS-DA]
effect on brain dopamine turnover (brain dopamine turnover): decrease of the brain dopamine turnover | effect on locomotion (locomotion): hypomotility | analgesic effect (decrease) ([1]; 0-5 mn acute pain phase, females): 65% | analgesic effect ([1]; 0-5 mn acute pain phase, male mice): not significant | suppression of PINS ([1]; 40 mg/kg ip in Cremophor.EL, 35-40 mn central sensitization phase, 1 hour after administration, vs Cremophor.EL control): 94.8% | analgesic effect (decrease) ([1]; 35-40 mn sensitization phase, males and females): about 95% | analgesic effect (decrease) ([1]; 55-60 mn sensitization phase, female mice): 95% | analgesic effect (decrease) ([1]; 55-60 mn sensitization phase, males): 58% | effect on PINS ([1]; NS-DA 10 mg/kg ip alone, 35-40 mn central sensitization phase): inactive | analgesic activity against PINS ([1]; formalin test, mice, general statement): high analgesic activity | PINS diminished ([1]; 1 hour after administration): 39% | PINS diminished ([1]; 2 hours after administration): 62% | PINS diminished ([1]; 4 hours after administration): 76%

CN1CC[C@]23c4c5ccc(O)c4O[C@H]2[C@@H](O)C=C[C@H]3[C@H]1C5 [morphine, reference compound]
decrease of PINS ([1]; morphine 3 mg/kg sc alone, 35-40 mn central sensitization phase): 37%
